This is an account of results in US9499550B2 (BRISTOL-MYERS SQUIBB COMPANY, priority 2012, dated 2016).

Read-outs that look alike come from different tables or passages of the source.

Broadly, the EC50 is the concentration at which the effect is half-maximal.

The test system of experiment [1] is HCV genotype 1b (Con1) replicon in HUH-7 cells. The experiment in a line: HCV replicon luciferase reporter assay, genotype 1b. It counts as cell-based. To be noted: Hepatitis C virus, Huh-7, 72 h, HCV genotype 1b replicon luciferase, 3 days incubation. Put shortly:
(§1)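 Replicon inhibition for both genotypes was measured as Renilla luciferase signal (EnduRen, 7.5 μM final, 2 h) after 3-day, 37° C exposure of replicon-bearing HUH-7 cells in 4% FCS DMEM, 0.5% DMSO. The 1b construct carries S1179I; the 1a H77 construct carries P1496L and S2204I. Twenty-point, 3-fold dilutions were fitted four-parametrically for EC50, and CC50 was taken from multiplexed Cell Titer-Blue.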
For orientation: In antiviral work, replicon cells carry a viral genome segment that copies itself.

Experiment [2] deals with HCV genotype 1a (H77 strain) replicon in HUH-7 cells. The experiment in a line: HCV replicon luciferase reporter assay, genotype 1a. It counts as cell-based. The note with it: Hepatitis C virus, Huh-7, 72 h, HCV genotype 1a replicon luciferase, 3 days incubation. Put shortly:
as §1

The mark [3] stands for this setting: GETYPE1B, read-out: LE_1b (EC50, range).
[4] abbreviates: GETYPE1A, read-out: LE_1a (EC50, range).

On to `CC[C@@H]1C[C@H](C)CC/C=C\[C@@H]2C[C@@]2(C(=O)NS(=O)(=O)C2CC2)NC(=O)[C@@H]2C[C@@H](Oc3ncnc4cc(OC)ccc34)CN2C(=O)[C@H]1NC(=O)OC(C)(C)C` [Compound 4239, tert-butyl ((2R,6S,7R,9R,13aS,14aR,16aS,Z)-14a-((cyclopropylsulfonyl)carbamoyl)-7-ethyl-2-((7-methoxyquinazolin-4-yl)oxy)-9-methyl-5,16-dioxo-1,2,3,5,6,7,8,9,10,11,13a,14,14a,15,16,16a-hexadecahydrocyclopropa[e]pyrrolo[1,2-a][1,4]diazacyclopentadecin-6-yl)carbamate], for which the 50% effective concentration (EC50) is under 5.46 nM in experiment [1] (read-out: LE_1b (EC50, range)) and under 5.46 nM in experiment [2] (read-out: LE_1a (EC50, range)).
On to `CC[C@@H]1C[C@H](C)CC/C=C\[C@@H]2C[C@@]2(C(=O)NS(=O)(=O)C2CC2)NC(=O)[C@@H]2C[C@@H](Oc3ncc(N4CCOCC4)c4cc(OC)c(F)cc34)CN2C(=O)[C@H]1NC(=O)OC(C)(C)C` [Compound 4240, tert-butyl ((2R,6S,7R,9R,13aS,14aR,16aS,Z)-14a-((cyclopropylsulfonyl)carbamoyl)-7-ethyl-2-((7-fluoro-6-methoxy-4-morpholinoisoquinolin-1-yl)oxy)-9-methyl-5,16-dioxo-1,2,3,5,6,7,8,9,10,11,13a,14,14a,15,16,16a-hexadecahydrocyclopropa[e]pyrrolo[1,2-a][1,4]diazacyclopentadecin-6-yl)carbamate], for which the EC50 in experiment [1] (read-out: LE_1b (EC50)) was 1.09 nM; in experiment [1] (read-out: LE_1b (EC50, range)), 1.01 to 5 nM; in experiment [2] (read-out: LE_1a (EC50)) it was 1.23 nM; in experiment [2] (read-out: LE_1a (EC50, range)) it was 1.01 to 5 nM.
For `CC[C@@H]1C[C@H](C)CC/C=C\[C@@H]2C[C@@]2(C(=O)NS(=O)(=O)C2(C)CC2)NC(=O)[C@@H]2C[C@@H](Oc3ncc(N(C)C)c4cc(OC)ccc34)CN2C(=O)[C@H]1NC(=O)OC(C)(C)C(F)(F)F` [Compound 4241], the EC50 in experiment [1] (setting [3]) and in experiment [2] (setting [4]) was 1.01 to 5 nM each time.
Take `COc1ccc2c(O[C@@H]3C[C@H]4C(=O)N[C@]5(C(=O)NS(=O)(=O)C6(C)CC6)C[C@H]5/C=C\CC[C@@H](C)C[C@@H](C)[C@H](NC(=O)OC(C)(C)C)C(=O)N4C3)cc(-c3ccc(OC(C)C)cc3)nc2c1` [Compound 4242, tert-butyl ((2R,6S,7R,9R,13aS,14aR,16aS,Z)-2-((2-(4-isopropoxyphenyl)-7-methoxyquinolin-4-yl)oxy)-7,9-dimethyl-14a-(((1-methylcyclopropyl)sulfonyl)carbamoyl)-5,16-dioxo-1,2,3,5,6,7,8,9,10,11,13a,14,14a,15,16,16a-hexadecahydrocyclopropa[e]pyrrolo[1,2-a][1,4]diazacyclopentadecin-6-yl)carbamate]: the concentration giving a half-maximal response (EC50) in experiment [1] (read-out: LE_1b (EC50, range)) lay in the range of 0.51 to 1 nM; in experiment [2] (read-out: LE_1a (EC50, range)) it was 0.51 to 1 nM.
With `CC[C@@H]1C[C@H](C)CC/C=C\[C@@H]2C[C@@]2(C(=O)NS(=O)(=O)C2CC2)NC(=O)[C@@H]2C[C@@H](Oc3ncc(N4CCOCC4)c4cc(OC)c(F)cc34)CN2C(=O)[C@H]1NC(=O)OC(C)(C)C(F)(F)F` [Compound 4243], the values for the concentration giving a half-maximal response (EC50) in experiment [1] (setting [3]) and in experiment [2] (setting [4]) were 0.51 to 1 nM and 1.01 to 5 nM, respectively.
The like results for `CC[C@@H]1C[C@H](C)CC/C=C\[C@@H]2C[C@@]2(C(=O)NS(=O)(=O)C2(C)CC2)NC(=O)[C@@H]2C[C@@H](Oc3nc4cc(OC)ccc4nc3C(F)(F)F)CN2C(=O)[C@H]1NC(=O)OC(C)(C)C(F)(F)F` [Compound 4244] were, in that order, 1.01 to 5 nM and 1.01 to 5 nM.
Consider `CC[C@@H]1C[C@H](C)CC/C=C\[C@@H]2C[C@@]2(C(=O)NS(=O)(=O)C2(C)CC2)NC(=O)[C@@H]2C[C@@H](Oc3cc(-n4cccn4)nc4cc(OC)ccc34)CN2C(=O)[C@H]1NC(=O)OC(C)(C)C` [Compound 4245, tert-butyl ((2R,6S,7R,9R,13aS,14aR,16aS,Z)-7-ethyl-2-((7-methoxy-2-(1H-pyrazol-1-yl)quinolin-4-yl)oxy)-9-methyl-14a-(((1-methylcyclopropyl)sulfonyl)carbamoyl)-5,16-dioxo-1,2,3,5,6,7,8,9,10,11,13a,14,14a,15,16,16a-hexadecahydrocyclopropa[e]pyrrolo[1,2-a][1,4]diazacyclopentadecin-6-yl)carbamate], for which the concentration for a half-maximal effect (EC50) in experiment [1] (read-out: LE_1b (EC50, range)) lay in the range of 0.1 to 0.5 nM; in experiment [2] (read-out: LE_1a (EC50, range)) it was 0.51 to 1 nM.
As for `CC[C@@H]1C[C@H](C)CC/C=C\[C@@H]2C[C@@]2(C(=O)NS(=O)(=O)C2(C)CC2)NC(=O)[C@@H]2C[C@@H](Oc3cc(-n4cccn4)nc4cc(OC)ccc34)CN2C(=O)[C@H]1NC(=O)OC(C)(C)C(F)(F)F` [Compound 4246], the figures for the EC50 in experiment [1] (setting [3]) and in experiment [2] (setting [4]) were 0.51 to 1 nM and 1.01 to 5 nM, respectively.
The like results for `COc1ccc2c(O[C@@H]3C[C@H]4C(=O)N[C@]5(C(=O)NS(=O)(=O)C6(C)CC6)C[C@H]5/C=C\CC[C@@H](C)C[C@@H](C)[C@H](NC(=O)OC(C)(C)C(F)(F)F)C(=O)N4C3)cc(-c3ccc(OC(C)C)c(F)c3)nc2c1` [Compound 4247] were, in that order, 1.01 to 5 nM and 1.01 to 5 nM.
The like results for `CCOc1cnc(O[C@@H]2C[C@H]3C(=O)N[C@]4(C(=O)NS(=O)(=O)C5CC5)C[C@H]4/C=C\CC[C@@H](C)C[C@@H](CC)[C@H](NC(=O)OC(C)(C)C(F)(F)F)C(=O)N3C2)c2ccc(OC)cc12` [Compound 4249] were, in that order, 0.51 to 1 nM and 1.01 to 5 nM.
In the case of `CC[C@@H]1C[C@H](C)CC/C=C\[C@@H]2C[C@@]2(C(=O)NS(=O)(=O)C2(C)CC2)NC(=O)[C@@H]2C[C@@H](Oc3nc4cc(OC)ccc4nc3C(C)C)CN2C(=O)[C@H]1NC(=O)OC(C)(C)C` [Compound 4250, tert-butyl ((2R,6S,7R,9R,13aS,14aR,16aS,Z)-7-ethyl-2-((3-isopropyl-7-methoxyquinoxalin-2-yl)oxy)-9-methyl-14a-(((1-methylcyclopropyl)sulfonyl)carbamoyl)-5,16-dioxo-1,2,3,5,6,7,8,9,10,11,13a,14,14a,15,16,16a-hexadecahydrocyclopropa[e]pyrrolo[1,2-a][1,4]diazacyclopentadecin-6-yl)carbamate], the EC50 was 1.01 to 5 nM in experiment [1] (read-out: LE_1b (EC50, range)) and 1.01 to 5 nM in experiment [2] (read-out: LE_1a (EC50, range)).
Regarding `CC[C@@H]1C[C@H](C)CC/C=C\[C@@H]2C[C@@]2(C(=O)NS(=O)(=O)C2(C)CC2)NC(=O)[C@@H]2C[C@@H](Oc3nc4cc(OC)ccc4nc3C(C)C)CN2C(=O)[C@H]1NC(=O)OC(C)(C)C(F)(F)F` [Compound 4251], the EC50 in experiment [1] (setting [3]) and in experiment [2] (setting [4]) was 1.01 to 5 nM in each case.
On to `CC[C@@H]1C[C@H](C)CC/C=C\[C@@H]2C[C@@]2(C(=O)NS(=O)(=O)C2CC2)NC(=O)[C@@H]2C[C@@H](Oc3ncc(OC)c4c(Cl)cccc34)CN2C(=O)[C@H]1NC(=O)OC(C)(C)C(F)(F)F` [Compound 4252], for which the figures for the half-maximal effective concentration (EC50) in experiment [1] (setting [3]) and in experiment [2] (setting [4]) were 0.51 to 1 nM and 1.01 to 5 nM, respectively.
In the same order, the values of `CC[C@@H]1C[C@H](C)CC/C=C\[C@@H]2C[C@@]2(C(=O)NS(=O)(=O)C2(C)CC2)NC(=O)[C@@H]2C[C@@H](Oc3ncc(OC)c4c(Cl)cccc34)CN2C(=O)[C@H]1NC(=O)OC(C)(C)C(F)(F)F` [Compound 4253] are 0.51 to 1 nM and 1.01 to 5 nM.
In the same order, the values of `CC[C@@H]1C[C@H](C)CC/C=C\[C@@H]2C[C@@]2(C(=O)NS(=O)(=O)C2(C)CC2)NC(=O)[C@@H]2C[C@@H](Oc3ncc(N4CCN(S(C)(=O)=O)CC4)c4cc(OC)ccc34)CN2C(=O)[C@H]1NC(=O)OC(C)(C)C(F)(F)F` [Compound 4254] are 0.51 to 1 nM and 1.01 to 5 nM.
In the case of `CC[C@@H]1C[C@H](C)CC/C=C\[C@@H]2C[C@@]2(C(=O)NS(=O)(=O)C2(C)CC2)NC(=O)[C@@H]2C[C@@H](Oc3nc4cc(OC)ccc4nc3Cl)CN2C(=O)[C@H]1NC(=O)OC(C)(C)C` [Compound 4256, tert-butyl ((2R,6S,7R,9R,13aS,14aR,16aS,Z)-2-((3-chloro-7-methoxyquinoxalin-2-yl)oxy)-7-ethyl-9-methyl-14a-(((1-methylcyclopropyl)sulfonyl)carbamoyl)-5,16-dioxo-1,2,3,5,6,7,8,9,10,11,13a,14,14a,15,16,16a-hexadecahydrocyclopropa[e]pyrrolo[1,2-a][1,4]diazacyclopentadecin-6-yl)carbamate], the concentration for a half-maximal effect (EC50) in experiment [1] (read-out: LE_1b (EC50, range)) is 0.1 to 0.5 nM; in experiment [2] (read-out: LE_1a (EC50, range)) it was 0.51 to 1 nM.
For `CC[C@@H]1C[C@H](C)CC/C=C\[C@@H]2C[C@@]2(C(=O)NS(=O)(=O)C2(C)CC2)NC(=O)[C@@H]2C[C@@H](Oc3nc4cc(OC)ccc4nc3Cl)CN2C(=O)[C@H]1NC(=O)OC(C)(C)C(F)(F)F` [Compound 4257], the concentration for a half-maximal effect (EC50) was in the range of 0.51 to 1 nM in experiment [1] (setting [3]) and 5.01 to 35 nM in experiment [2] (setting [4]).
The like results for `COc1ccc2nc(C(C)C)c(O[C@@H]3C[C@H]4C(=O)N[C@]5(C(=O)NS(=O)(=O)C6(C)CC6)C[C@H]5/C=C\CC[C@@H](C)C[C@@H](C)[C@H](NC(=O)OC(C)(C)C(F)(F)F)C(=O)N4C3)nc2c1` [Compound 4259] were, in that order, 0.51 to 1 nM and 1.01 to 5 nM.
In the case of `COc1ccc2nc(O[C@@H]3C[C@H]4C(=O)N[C@]5(C(=O)NS(=O)(=O)C6(C)CC6)C[C@H]5/C=C\CC[C@@H](C)C[C@@H](C)[C@H](NC(=O)OC(C)(C)C)C(=O)N4C3)c(-c3ccc(OC(C)C)cc3)nc2c1` [Compound 4260, tert-butyl ((2R,6S,7R,9R,13aS,14aR,16aS,Z)-2-((3-(4-isopropoxyphenyl)-6-methoxyquinoxalin-2-yl)oxy)-7,9-dimethyl-14a-(((1-methylcyclopropyl)sulfonyl)carbamoyl)-5,16-dioxo-1,2,3,5,6,7,8,9,10,11,13a,14,14a,15,16,16a-hexadecahydrocyclopropa[e]pyrrolo[1,2-a][1,4]diazacyclopentadecin-6-yl)carbamate], the EC50 in experiment [1] (read-out: LE_1b (EC50, range)) fell in the range of 1.01 to 5 nM; in experiment [2] (read-out: LE_1a (EC50, range)) it was 1.01 to 5 nM.
